The record followed here is patent publication US11408891B2, “Imaging agent” (University of Lancaster, priority 2017, dated 2022).

The test system of assay [1] is HaCaT cells. To be noted: HaCaT cells with and without microtubule-depolymerising levels of nocodazole (FIG. 2). The procedure: HaCaT cells were grown on glass coverslips under the same conditions as in described in Steel 2015 referred to herein. […] The coverslips were then washed in PBS and mounted by inversion on a glass slide. Images were captured on a Zeiss LSM 850 Meta laser scanning confocal microscope.

For assay [2], the system named is peroxisomes in HaCaT cells. As for the experimental part:
FIG. 1: Chemical structure of a compound of the invention (and the compound referred to in the figures for example as the platinum complex) and confocal micrograph of HaCaT cells after 10 minutes exposure to 25 μg/ml of the platinum complex (ex 405 nm, emission 505-740 nm). […] A compound of the invention may be prepared as a salt, for example as a sodium salt as described herein, and is used as an imaging agent in a buffer solution. HaCaT cells were grown on glass coverslips under the same conditions as in described in Steel 2015 referred to herein. […] The coverslips were then washed in PBS and mounted by inversion on a glass slide. Images were captured on a Zeiss LSM 850 Meta laser scanning confocal microscope.

Assay [3] has as its system peroxisomes (pDsRed2-Peroxi Vector labelled compartments). The conditions noted are these: photo-bleaching at 514 nm, complex excited at 405 nm (FIG. 4). The procedure:
FIG. 4: Co-localisation experiment with Clontech pDsRed2-Peroxi Vector. […] Fluorescence micrographs of co-localisation experiment i) Excited at 405 nm pre-photo-bleaching; ii) excited at 514 nm pre photo-bleaching iii) excited at 514 nm post photo-bleaching; iv) Excited at 405 nm post photo-bleaching. HaCaT cells were grown on glass coverslips under the same conditions as in described in Steel 2015 referred to herein. […] The coverslips were then washed in PBS and mounted by inversion on a glass slide. Images were captured on a Zeiss LSM 850 Meta laser scanning confocal microscope.

[4] abbreviates: PBS containing compound at 125 μg/ml, 10 minutes at 4° C.

Read-outs that look alike come from different tables or passages of the source.

Regarding PtMe3bpy-S-glutathione [compound A], in assay [1], the “motility of the stained compartments” value is “microtubule-dependent motility”. The staining pattern entry in assay [2] (10 minutes exposure to 25 μg/ml, ex 405 nm, emission 505-740 nm (FIG. 1)) was “punctate pattern”; in assay [2] (setting [4]) it was “punctate staining pattern, characteristic of peroxisomes”. The uptake by cells result in assay [2] (setting [4]) is recorded as “readily taken up by cells”. In addition, the “co-localisation with peroxisome marker” value in assay [3] is listed as “platinum complex emission was retained in the same cellular compartments”.
